Reference: US12310365B2 (priority 2009, dated 2025)

How the values were obtained:
Type in all cases: in vivo
Pyricularia oryzae = experiment: whole plant or invertebrate; conditions: topical, 168 h, read-out: Control value
[1] = tested on: Pseudoperonospora cubensis; experiment: Cucumber downy mildew preventive test; conditions: for pest or weed control at 20 ppm: treatment concentration 20 ppm
[2] = tested on: Pseudoperonospora cubensis; experiment: Cucumber downy mildew curative test; conditions: single ingredient; for pest or weed control at 20 ppm: treatment concentration 20 ppm
[3] = tested on: Botrytis cinerea (Diethofencarb-resistant strain); experiment: Tomato gray mold preventive test (Diethofencarb-resistant strain)
Sphaerotheca fuliginea [4] = experiment: Cucumber powdery mildew preventive test; conditions: Podosphaera fuliginea, topical, 168 h; for pest or weed control at 20 ppm: treatment concentration 20 ppm; for pest or weed control at 10 ppm: treatment concentration 10 ppm
Sphaerotheca fuliginea [5] = experiment: Cucumber powdery mildew curative test; conditions: Podosphaera fuliginea, topical, 168 h; for pest or weed control at 20 ppm: treatment concentration 20 ppm; for pest or weed control at 10 ppm: treatment concentration 10 ppm
[6] = treatment concentration 160 ppm
[7] = treatment concentration 4.4 ppm
[8] = treatment concentration 55.3 ppm
[9] = Pseudoperonospora cubensis, topical, 168 h, treatment concentration 10 ppm
[10] = Pseudoperonospora cubensis, topical, 168 h
[11] = Botrytis cinerea, topical, 48 h, read-out: Control value
[12] = treatment concentration 1.7 ppm
[13] = treatment concentration 7.5 ppm
[14] = Pseudoperonospora cubensis, topical, 168 h, treatment concentration 9.4 ppm

Cc1ccc(C(=O)NC[C@H](C)NC(=O)OCC(F)(F)F)cc1 [Compound 2007, 2,2,2-Trifluoroethyl {(1S)-1-methyl-2-[(4-methylbenzoyl)amino]ethyl}-carbamate]
pest or weed control at 5 ppm (Pyricularia oryzae): 67%

Fosetyl-aluminium
Control value [1, 6]: 60 | Control value [2, 6]: 67

Maneb
Control value ([3]; treatment concentration 177.5 ppm): 17

Clc1ccc(CSC(Cn2cncn2)=Nc2ccc(Cl)cc2Cl)cc1 [Imibenconazole]
pest or weed control at 15 ppm (Sphaerotheca fuliginea [4]; treatment concentration 15 ppm): 33% | pest or weed control at 15 ppm (Sphaerotheca fuliginea [5]; treatment concentration 15 ppm): 75%

N#CC(CCc1ccc(Cl)cc1)(Cn1cncn1)c1ccccc1 (stereo not drawn) [Fenbuconazole]
pest or weed control at 4.4 ppm (Sphaerotheca fuliginea [4]; [7]): 27% | pest or weed control at 4.4 ppm (Sphaerotheca fuliginea [5]; [7]): 75%

[Cu+2].[OH-].[OH-] [cupric hydroxide]
Control value [1, 8]: 40 | Control value [2, 8]: 50

CC(C)[C@@H](CNC(=O)c1cc2ccccc2o1)NC(=O)OCC(F)(F)F [Compound 2006, 2,2,2-Trifluoroethyl ((1S)-1-{[(1-benzofuran-2-ylcarbonyl)amino]methyl}-2-methylpropyl)carbamate]
pest or weed control at 5 ppm (Pyricularia oryzae): 67%

C[C@@]1(c2ccc(Oc3ccccc3)cc2)OC(=O)N(Nc2ccccc2)C1=O (racemic) [Famoxadone]
pest or weed control at 10 ppm [1, 9]: 0% | pest or weed control at 10 ppm [2, 9]: 92%

CCNC(=O)NC(=O)/C(C#N)=N/OC [Cymoxanil]
pest or weed control at 20 ppm [1, 10]: 60% | pest or weed control at 20 ppm [2, 10]: 67%

CCOc1ccc(NC(=O)OC(C)C)cc1OCC [Diethofencarb]
pest or weed control at 12.5 ppm [3, 11]: 0%

N#Cc1c[nH]cc1-c1cccc2c1OC(F)(F)O2 [Fludioxonil]
pest or weed control at 20 ppm [3, 11]: 67%

COc1ccc(C(=CC(=O)N2CCOCC2)c2ccc(Cl)cc2)cc1OC [Dimethomorph]
pest or weed control at 20 ppm [1, 10]: 60% | pest or weed control at 20 ppm [2, 10]: 50%

CC(C)OC(=O)N[C@H](C(=O)N[C@H](C)c1nc2ccc(F)cc2s1)C(C)C [Benthiavalicarb-isopropyl]
pest or weed control at 10 ppm [1, 9]: 40% | pest or weed control at 10 ppm [2, 9]: 67%

CC#Cc1cc(C)nc(Nc2ccccc2)n1 [Mepanipyrim]
pest or weed control at 20 ppm (Sphaerotheca fuliginea [4]): 0% | pest or weed control at 20 ppm (Sphaerotheca fuliginea [5]): 75%

CCCOC/C(=N\c1ccc(Cl)cc1C(F)(F)F)n1ccnc1 [Triflumizole]
pest or weed control at 6 ppm (Sphaerotheca fuliginea [4]; treatment concentration 6 ppm): 33% | pest or weed control at 6 ppm (Sphaerotheca fuliginea [5]; treatment concentration 6 ppm): 67%

Cc1ccc(C(=O)NC[C@@H](NC(=O)OC(C)C)C(C)(C)C)cc1 [Compound 2002, Isopropyl ((1S)-2,2-dimethyl-1-{[(4-methylbenzoyl)amino]methyl}propyl)-carbamate]
pest or weed control at 5 ppm (Pyricularia oryzae): 33%

O=C(Cc1ccccc1)N/C(=N\OCC1CC1)c1c(C(F)(F)F)ccc(F)c1F [Cyflufenamid]
pest or weed control at 1.7 ppm (Sphaerotheca fuliginea [4]; [12]): 33% | pest or weed control at 1.7 ppm (Sphaerotheca fuliginea [5]; [12]): 67%

CO/N=C(/C(=O)OC)c1ccccc1COc1ccccc1C [Kresoxim-methyl]
pest or weed control at 20 ppm (Sphaerotheca fuliginea [4]): 17% | pest or weed control at 20 ppm (Sphaerotheca fuliginea [5]): 67%

Cc1ccc(C(=O)NC[C@@H](NC(=O)OCC(F)(F)F)C(C)C)cc1 [Compound 2004, 2,2,2-Trifluoroethyl ((1S)-2-methyl-1-{[(4-methylbenzoyl)amino]methyl}-propyl)carbamate]
pest or weed control at 5 ppm (Pyricularia oryzae): 67%

CO/C=C(/C(=O)OC)c1ccccc1Oc1cc(Oc2ccccc2C#N)ncn1 [Azoxystrobin]
Control value ([1]; treatment concentration 8 ppm): 60 | Control value ([2]; treatment concentration 8 ppm): 92

CC12CC1(C)C(=O)N(c1cc(Cl)cc(Cl)c1)C2=O (stereo not drawn) [Procymidone]
pest or weed control at 50 ppm [3, 11]: 17%

CCNc1nc(CC)c(C(=O)NC(C#N)c2cccs2)s1 (stereo not drawn) [Ethaboxam]
Control value ([1]; treatment concentration 10 ppm): 20 | Control value ([2]; treatment concentration 10 ppm): 67

CC1(C)COC(C)(CCCc2ccc(Cl)cc2)N1C(=O)n1ccnc1.CC1(C)COC(C)(CCCc2ccc(Cl)cc2)N1C(=O)n1ccnc1.O=C(O)/C=C/C(=O)O (stereo not drawn) [Oxpoconazole fumarate]
Control value ([3]; treatment concentration 10 ppm): 0

Iminoctadine trialbesilate
Control value ([3]; treatment concentration 40 ppm): 67

Cc1ccc(C(=O)NC[C@@H](NC(=O)OCC(F)(F)F)C(C)(C)C)cc1 [Compound 2005, 2,2,2-Trifluoroethyl ((1S)-2,2-dimethyl-1-{[(4-methylbenzoyl)amino]methyl}-propyl)carbamate]
pest or weed control at 5 ppm (Pyricularia oryzae): 67%

Cc1ccc(C(=O)NC[C@@H](NC(=O)OC(C)C)C(C)C)cc1 [Compound 2001, Isopropyl ((1S)-2-methyl-1-{[(4-methylbenzoyl)amino]methyl}propyl)-carbamate]
pest or weed control at 5 ppm (Pyricularia oryzae): 33%

Cc1ccc(C(=O)NC[C@@H](NC(=O)OC(C)C)C(F)(F)F)cc1 [Compound 2009, Isopropyl ((1R)-2,2,2-trifluoro-1-{[(4-methylbenzoyl)amino]methyl}ethyl)-carbamate]
pest or weed control at 5 ppm (Pyricularia oryzae): 67%

O=C1C2CC=CCC2C(=O)N1SC(Cl)(Cl)Cl (stereo not drawn) [Captan]
pest or weed control at 133.3 ppm [3, 11]: 33%

CC(C)CC(C)c1sccc1NC(=O)c1cn(C)nc1C(F)(F)F (stereo not drawn) [Penthiopyrad]
pest or weed control at 10 ppm [3, 11]: 33%

COCC(=O)N(c1c(C)cccc1C)[C@H](C)C(=O)OC [Metalaxyl M]
Control value ([1]; treatment concentration 10 ppm): 60 | Control value ([2]; treatment concentration 10 ppm): 83

CC1(C(=O)Nc2ccc(O)c(Cl)c2Cl)CCCCC1 [Fenhexamid]
pest or weed control at 50 ppm [3, 11]: 50%

CCCCC(O)(Cn1cncn1)c1ccc(Cl)cc1Cl (stereo not drawn) [Hexaconazole]
pest or weed control at 2 ppm (Sphaerotheca fuliginea [4]; treatment concentration 2 ppm): 17% | pest or weed control at 2 ppm (Sphaerotheca fuliginea [5]; treatment concentration 2 ppm): 75%

CC(C)NC(=O)N1CC(=O)N(c2cc(Cl)cc(Cl)c2)C1=O [Iprodione]
pest or weed control at 50 ppm [3, 11]: 67%

CC(C)(C)C(=O)C(Oc1ccc(Cl)cc1)n1cncn1 (stereo not drawn) [Triadimefon]
pest or weed control at 10 ppm (Sphaerotheca fuliginea [4]): 0% | pest or weed control at 10 ppm (Sphaerotheca fuliginea [5]): 67%

C[Si](C)(C)CC(O)(Cn1cncn1)c1ccc(F)cc1 (stereo not drawn) [Simeconazole]
pest or weed control at 10 ppm (Sphaerotheca fuliginea [4]): 0% | pest or weed control at 10 ppm (Sphaerotheca fuliginea [5]): 33% | pest or weed control at 10 ppm [3, 11]: 33%

OC(c1ccc(Cl)cc1)(c1cncnc1)c1ccccc1Cl (stereo not drawn) [Fenarimol]
pest or weed control at 4 ppm (Sphaerotheca fuliginea [4]; treatment concentration 4 ppm): 67% | pest or weed control at 4 ppm (Sphaerotheca fuliginea [5]; treatment concentration 4 ppm): 78%

COCC(=O)N(c1c(C)cccc1C)C(C)C(=O)OC (stereo not drawn) [Metalaxyl]
pest or weed control at 10 ppm [1, 9]: 60% | pest or weed control at 10 ppm [2, 9]: 92%

Mancozeb
Control value [1, 13]: 60 | Control value [2, 13]: 67

COC(=O)NC(=S)Nc1ccccc1NC(=S)NC(=O)OC [Thiophanate-methyl]
pest or weed control at 70 ppm [3, 11]: 43%

O=[N+]([O-])c1cc(C(F)(F)F)c(Cl)c([N+](=O)[O-])c1Nc1ncc(C(F)(F)F)cc1Cl [Fluazinam]
pest or weed control at 20 ppm [3, 11]: 0%

Cc1ccc(C(=O)NC[C@@H](NC(=O)OCc2ccccc2)C(C)C)cc1 [Compound 2008, Benzyl ((1S)-2-methyl-1-{[(4-methylbenzoyl)amino]methyl}propyl)carbamate]
pest or weed control at 5 ppm (Pyricularia oryzae): 33%

O=C(Nc1ccccc1-c1ccc(Cl)cc1)c1cccnc1Cl [Boscalid]
pest or weed control at 50 ppm [3, 11]: 17%

CC(C)(C)C(O)(CCc1ccc(Cl)cc1)Cn1cncn1 (stereo not drawn) [Tebuconazole]
pest or weed control at 20 ppm (Sphaerotheca fuliginea [4]): 33% | pest or weed control at 20 ppm (Sphaerotheca fuliginea [5]): 67%

CC(C)OC(=O)N[C@H](CNC(=O)c1cc2ccccc2o1)C(C)C [Compound 2003, Isopropyl ((1S)-1-{[(1-benzofuran-2-ylcarbonyl)amino]methyl}-2-methyl-propyl)carbamate]
pest or weed control at 5 ppm (Pyricularia oryzae): 50%

Cc1ccc(-c2c(Cl)nc(C#N)n2S(=O)(=O)N(C)C)cc1 [Cyazofamid]
pest or weed control at 9.4 ppm [1, 14]: 40% | pest or weed control at 9.4 ppm [2, 14]: 67%
